In ChEMBL document CHEMBL1122357, “Alkylation of opioid receptor subtypes by alpha-chlornaltrexamine produces concurrent irreversible agonistic and irreversible antagonistic activities” (J Med Chem, 1983):

Key:
Type in all cases: functional
[1] = species: Cavia porcellus; assay: Agonistic effect on beta-FNA treated guinea pig ileum preparations (GPI)
[2] = species: Cavia porcellus; assay: Agonistic effect on untreated guinea pig ileum preparations (GPI)
[3] = kappa antagonistic effect on beta-FNA and alpha-CNA treated GPI (IC50 ratio=IC50 after treatment/IC50 before treatment)
[4] = kappa antagonistic effect on beta-FNA treated GPI (IC50 ratio=IC50 after treatment/IC50 before treatment)

SMILES	IC50 [1]	IC50 [2]	IC50 ([1]; Cavia porcellus, Ileum)	IC50 ([2]; Cavia porcellus, Ileum)	Ratio [3]	Ratio [4]
Oc1ccc2c3c1O[C@H]1[C@@H](N(CCCl)CCCl)CCC4(O)C(C2)N(CC2CC2)CCC314 (stereo partly specified)	2.4 nM	5.5 nM	–	–	–	–
CCOc1ccc2c(c1)C1(C)CCN(CC3CC3)C(C2=O)C1C (stereo unspecified) [ETHYLKETAZOCINE]	–	–	0.69 nM	0.72 nM	10.1	1.21
